Assay results taken from US20040248871A1, “Use of lysyl oxidase inhibitors for cell culture and tissue engineering” (priority 2001, published 2004).
Where “and” joins values, the source holds several entries; their conditions need not be identical. Equal entries are not always repeated.

Tests used:
[1] = test system: normal human chondrocytes; assay: Normal human chondrocytes in 3D culture in collagen-GAG-chitosan sponge (immunofluorescence, histology); format: cell-based; details: 3D culture in sponge, three months
From the text: The chondrocytes obtained after ligamentoplasty have been used for the three-dimensional culture in collagen-GAG-chitosan sponge (Collombel et al. 1987)* in the presence or absence of BAPN (FIGS. 7 and 8). * Collombel C., Damour O., Gagneu C., Poinsignon F., Echinard C., Marichy J.: Peau artificielle et son procédé de fabrication. French Patent No. 87-08752 (15th Jun. 1987), European Patent No. 88-420194.8 (14th Jun. 1988).
Nevertheless, human chondrocytes dedifferentiated in terms of the period of culture necessary for their multiplication in culture on plastic, can advantageously be placed in three-dimensional (3D) culture in the presence of βAPN. The placing in 3D culture not being sufficient, in itself, to ensure a return to the cartilage phenotype lost during the 2-dimensional culture in the presence of serum, as was described for 3D cultures in agarose.
3 D culture in sponges of collagen-GAG-chitosan in the presence of serum and βAPN of normal human chondrocytes. The chondrocytes were previously multiplied, and dedifferentiated, in 2D culture on plastic.

[2] = test system: standard purified aortic LO; assay: Lysyl oxidase activity assay with tritiated elastin substrate on standard purified aortic LO; format: biochemical; details: Experiment 2, substrate no. 2, standard purified aortic LO
Procedure: (§1) The Lysyl oxidase activity was assayed with 300,000 dpm of labelled elastin on the Lysine, substrate of the enzyme (Shackelton and Hulmes Anal. Biochem. (1990) 185: 359-362). The determination of the presence of Lysyl oxidases in the cultures of chondrocytes is carried out according to the standard methods of immunodecoration of the supports onto which the bands separated from the proteins extracted from the corresponding culture media or from the cell lawns have been transferred.

[3] = test system: reconstructed skin (fibroblasts and keratinocytes); assay: Histology, immunohistology and in situ hybridization of reconstructed skins; format: cell-based, human
From the text: (§2) The method allowing the formation of the reconstructed skin is that described in the French Patent 87-08252 of the 15th Jun. 1987.
(§3) The support of the reconstructed skin model is constituted by a dermal substrate (DS) with a base of collagen-glycosaminoglycan cross-linked by chitosan according to the technique published by Duplan-Perrat et al (J Invest Dermatol 2000 114:365). Fibroblasts are inoculated the inside of the DS in order to obtain an equivalent dermis. The reconstituted skin (RS) is obtained by inoculating the keratinocytes after 15 days (day 15) of culture in equivalent dermis. The dermal fibroblasts are obtained from explants of human prepuces after dermal-epidermal separation and cultured in monolayer in DMEM medium (Sigma) supplemented by 10% fœtal calf serum, 4 mM L-glutamine, EGF (Austral Biologic) at 10 ng/ml, penicillin at 100 UI/ml, gentamicin at 100 μg/ml and amphotericin B at 1 μg/ml. The keratinocytes are from a human skin biopsy sample after dermal-epidermal separation by trypsination. The cells are inoculated nutritive layers (irradiated fibroblasts) and cultured in DMEM and HAM F12 at 30% supplemented with fœetal calf serum at 10%, EGF at 10 ng/ml, hydrocortisone at 1.6 ng/ml, umulin at 0.12 UI/ml, choleratoxin at 0.1 nM, triiodothyronine at 0.2 μM, adenine at 24 μg/ml, 4 mM L-Glutamine, penicillin at 100 UI/ml, gentamicin at 100 μg/ml and amphotericin B at 1 μg/ml.
A mixture with a base of bovine collagen of type I and III (72%), glycosaminoglycan (8%) cross-linked by chitosan (20%) is poured into 6-well plates. The dermal substrates thus obtained are then frozen at −80° C. and lyophilized. The fibroblasts are inoculated in the dermal substrate, rehydrated and sterilized at a rate of 250,000 cells per cm^2. Keratinocytes are inoculated after 15 days (day 15) at a density of 200,000 to 250,000 cells/cm^2. The reconstructed skins are cultured for 8 days in immersion, in the medium described previously supplemented with 50 μg/ml of vitamin C. […]

[4] = test system: reconstructed skin (fibroblasts and keratinocytes); assay: Retraction (surface area) of reconstructed skins; format: cell-based, human; details: for surface area compared to the initial original surface area: 35 days of culture
From the text: as §2, §3
A mixture with a base of bovine collagen of type I and III (72%), glycosaminoglycan (8%) cross-linked by chitosan (20%) is poured into 6-well plates. The dermal substrates thus obtained are then frozen at −80° C. and lyophilized. The fibroblasts are inoculated in the dermal substrate, rehydrated and sterilized at a rate of 250,000 cells per cm^2. Keratinocytes are inoculated after 15 days (day 15) at a density of 200,000 to 250,000 cells/cm^2. The reconstructed skins are cultured for 8 days in immersion, in the medium described previously supplemented with 50 μg/ml of vitamin C. Then the reconstructed skins are raised to the air-liquid interface using a simplified culture medium with a DMEM base, supplemented with fœtal calf serum, EGF, hydrocortisone, umulin, L-glutamine, penicillin, gentamicin, and amphotericin B, and ascorbic acid, at the concentrations described above. The reconstructed skins are cultured up to day 60. Samples are taken at day 30 and day 60 for the different analyses.
βAPN (50 μg/ml) is added immediately upon inoculation, to the culture medium which is renewed every 2 days and applied to the cultures of chondrocytes as well as to those of fibroblasts then of keratinocytes during the formation of the reconstructed skin.

Lysyl oxidase = Lysyl oxidase activity assay with tritiated elastin substrate on culture media of chicken embryo chondrocytes; format: biochemical
Procedure: as §1
Lysyl oxidase activities (inhibited by βAPN and assayed by the production of tritiated water) are secreted in the culture media. The specific activity recorded in the media is stronger on the 7th day of culture than on the 13th day. The extracellular matrix being richer in natural collagenic substrates of the Lysyl oxidase activity on the 13th day of culture, it would thus retain the enzyme in the cell lawn.

[5] = test system: deep chondrocytes of the cotyloid ligament; assay: Human cotyloid cartilage chondrocytes in 2D culture on plastic; format: cell-based; details: hyaluronidase in extraction medium, two weeks, serum
From the text: b) The cultures of normal human chondrocytes originate from cartilages taken during hip prosthesis or ligamentoplasty surgery, then subjected to enzymatic digestion. These cartilage biopsies are considered as res nullus.
The chondrocytes extracted from the cotyloid ligament have been used for the two-dimensional culture on plastic in the presence of BAPN: the cultures obtained after enzymatic digestion of the cartilages in the presence or absence of hyaluronidase were compared (FIGS. 4 and 5).
The 24-hour radio-labellings with the 14C proline were carried out on the 2nd, 7th and 14th day of culture in the presence of serum and βAPN (day 2, day 7 and day 14 respectively). The pepsinated extracts of culture medium and cell lawn were subjected to electrophoresis then fluorography.
The superficial areas (even numbers) and deep areas (odd numbers) of the cotyloid cartilage were separated before being subjected to enzymatic digestion in the presence or absence of hyaluronidase.

SMILES: N#CCCN [βAPN, β-aminopropionitrile]
- intensity of marking of the collagen I [1]: strong decrease
- intensity of marking of the collagen II and of the aggrecan (cartilage markers) [1]: clear increase
- dpm + βAPN (Lysyl oxidase activity assay) [2]: 4340 dpm and 4762 dpm
- histology of the reconstructed skins ([3]; 50 μg/ml or 200 μg/ml): does not seem to be fundamentally changed
- detection of the LOX and LOXL genes by in situ hybridization ([3]; 50 μg/ml, dermis and epidermis): slight increase
- synthesis of extracellular matrix / colonization of the sponge by the fibroblasts ([3]; dermis of reconstructed skin): increased synthesis of ECM
- surface area compared to the initial original surface area ([4]; 50 μg/ml): 50%
- surface area compared to the non-treated control ([4]; 50 μg/ml, after two weeks at the air-liquid interface): do not show any significant difference
- surface area compared to the initial original surface area ([4]; 200 μg/ml): 40%
- surface area compared to the initial original surface area ([4]; 500 μg/ml): 40%
- reduction in surface area compared to original state ([4]; 500 μg/ml, immersed, before raising to the air-liquid interface): 17%
- surface area compared to that of the control ([4]; 200 or 500 μg/ml, after two weeks at the air-liquid interface): significantly greater surface area
- retraction compared to the control ([4]; skins still in immersed culture): significant dose-dependent reduction
- dpm + βAPN (Lysyl oxidase activity assay) (Lysyl oxidase; Experiment 1, substrate no. 1, culture − FCS, + cys, Day 3, caudal chondrocytes, 15% medium P35): 674 dpm and 718 dpm
- dpm + βAPN (Lysyl oxidase activity assay) (Lysyl oxidase; Experiment 2, substrate no. 2, culture + FCS, − cys, Day 7, caudal chondrocytes, 25% medium P35): 5296 dpm and 6210 dpm
- dpm + βAPN (Lysyl oxidase activity assay) (Lysyl oxidase; Experiment 2, substrate no. 2, culture + FCS, − cys, Day 7, cranial chondrocytes, 100% medium P35): 5800 dpm and 6536 dpm
- dpm + βAPN (Lysyl oxidase activity assay) (Lysyl oxidase; Experiment 2, substrate no. 2, culture + FCS, − cys, Day 13, caudal chondrocytes, 75% medium P35): 4344 dpm and 4702 dpm
- dpm + βAPN (Lysyl oxidase activity assay) (Lysyl oxidase; Experiment 2, substrate no. 2, culture + FCS, − cys, Day 13, cranial chondrocytes, 100% medium P35): 4580 dpm and 4618 dpm
- preservation of morphology and phenotype (matrix of cartilaginous type, without collagen I) [5]: preserving their morphology and their phenotype
